{"source": "paper PMC6344527", "about": "“Toxicity and possible mechanisms of action of honokiol from Magnolia denudata seeds against four mosquito species” (Scientific Reports, 2019)", "key": {"larval Ae. aegypti": {"system": "larval Ae. aegypti", "parameters": "method as in PMID 23676010", "details": "cited from earlier work"}, "[1]": {"target": "acetylcholinesterase (AChE) from third-instar Ae. aegypti larvae (Aedes aegypti, UniProt A4GND7)", "sequence (A4GND7 37-679)": "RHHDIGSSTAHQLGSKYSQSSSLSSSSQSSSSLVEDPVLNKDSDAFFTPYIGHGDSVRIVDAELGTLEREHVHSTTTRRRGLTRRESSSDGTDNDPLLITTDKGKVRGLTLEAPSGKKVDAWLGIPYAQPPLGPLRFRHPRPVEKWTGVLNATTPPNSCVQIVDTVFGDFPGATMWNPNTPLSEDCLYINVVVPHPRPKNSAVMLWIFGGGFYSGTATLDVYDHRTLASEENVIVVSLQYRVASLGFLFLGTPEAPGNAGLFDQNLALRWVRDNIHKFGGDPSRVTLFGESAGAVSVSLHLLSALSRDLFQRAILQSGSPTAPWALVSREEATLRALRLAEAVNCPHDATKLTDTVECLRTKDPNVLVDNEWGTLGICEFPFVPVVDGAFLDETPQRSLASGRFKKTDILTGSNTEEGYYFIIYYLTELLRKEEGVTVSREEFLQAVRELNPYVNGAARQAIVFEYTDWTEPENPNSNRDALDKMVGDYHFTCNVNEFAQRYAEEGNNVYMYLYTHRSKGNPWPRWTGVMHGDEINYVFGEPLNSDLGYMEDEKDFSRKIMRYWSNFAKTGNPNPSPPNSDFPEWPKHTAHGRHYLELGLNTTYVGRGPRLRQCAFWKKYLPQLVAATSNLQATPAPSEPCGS", "test": "acetylcholinesterase inhibition assay", "type": "biochemical", "details": "based on IC50 values", "experimental": "The in vitro AChE inhibitory activity of the test compounds was assessed according to the method of Perumalsamy et al.[42]. Third-instar Ae. aegypti larvae were used in all experiments. Whole bodies of 50 larvae were homogenized in 1 mL of ice-cold 0.1 M phosphate buffer (pH 8.0) using a glass tissue homogenizer. After filtering through cheesecloth, the homogenate was centrifuged at 1,000 × g at 4 °C for 5 min. The supernatant was used directly as the enzyme source for AChE. The protein levels were determined using the Bradford Protein Assay Kit (Bio-Rad Laboratories, Hercules, CA, USA) using BSA as the standard. The reaction mixture consisted of 50 µL of the crude enzyme preparation (4.3–4.8 µg protein equivalents), 150 µL of 0.1 M phosphate buffer, 20 µL of 3 mM DTNB in phosphate buffer (pH 7.0), and 1 µL of various concentrations of each test compound in ethanol. The reaction mixture was incubated at 30 °C for 5 min, and 20 µL of 32 mM ATChI was then added to the mixture. After incubation for 30 min, the reaction was terminated by adding 20 µL of 5 mM eserine salicylate. Absorbance was recorded at 412 nm using a VersaMax microplate reader (Molecular Devices, Sunnyvale, CA, USA). […] The results are expressed as the means ± standard errors (SEs) of triplicate samples from three independent experiments.\n(§1) The concentration of the test compounds required to produce 50% AChE inhibitory activity (IC50) was determined using the SAS 9.13 program (Cary: SAS Institute; 2014). Concentration-mortality data were subjected to probit analysis using the SAS 9.13 program. […] Statistical analyses were performed using the SAS 9.13 program. Multiple linear regression and correlation analysis were performed using the SPSS 24 program (Armonk: IBM Corp.; 2016)."}, "[2]": {"system": "third-instar larvae of insecticide-susceptible Aedes aegypti", "test": "contact mortality bioassay, 24 h exposure", "type": "in vivo", "details": "24 h exposure; for LC50: Aedes aegypti, 24 h", "experimental": "(§2) A contact mortality bioassay[25] was used to evaluate the toxicity of all compounds against third-instar larvae of the four mosquito species. Each test compound in methanol was suspended in DW with Triton X-100 (20 µL/L). Groups of 20 mosquito larvae were separately placed into paper cups (270 mL) containing each compound solution (250 mL). […] Negative controls consisted of a methanol–Triton X-100 solution in DW.\n(§3) Treated and control (methanol–Triton X-100 solution only) larvae were maintained under the same conditions as those used for colony maintenance without providing food. Larval mortalities were determined 24 h post-treatment. […] All treatments were performed three times using 20 larvae per replicate.\nas §1"}, "[3]": {"system": "third-instar larvae of insecticide-susceptible Culex pipiens pallens", "test": "contact mortality bioassay, 24 h exposure", "type": "in vivo", "details": "24 h exposure; for LC50: Culex pipiens, 24 h", "experimental": "as §2, §3, §1"}, "Larvae of An. sinensis": {"system": "Larvae of An. sinensis", "parameters": "method as in PMID 26085316", "details": "An. sinensis larvae compared with Ae. aegypti larvae; cited from earlier work"}, "[4]": {"system": "third-instar larvae of insecticide-susceptible Aedes albopictus", "test": "contact mortality bioassay, 24 h exposure", "type": "in vivo", "experimental": "as §2, §3, §1"}, "[5]": {"system": "third-instar larvae of insecticide-resistant Anopheles sinensis", "test": "contact mortality bioassay, 24 h exposure", "type": "in vivo", "experimental": "as §2, §3, §1"}, "[6]": {"system": "whole-body homogenate from third-instar Aedes aegypti larvae (adenylate cyclase activity)", "test": "determination of cyclic AMP levels (octopamine-sensitive adenylate cyclase activity)", "type": "biochemical", "details": "100 μM; compared with control group / octopamine", "experimental": "The method of Perumalsamy et al.[42] was used to assess the in vitro octopamine-sensitive adenylate cyclase activity of the test compounds. In brief, whole bodies of 75 Ae. aegypti larvae (106.2 mg) were homogenized in 500 µL of 2 mM Tris-maleate buffer (pH 7.4) containing 0.8 mM ethylene glycol tetraacetic acid (EGTA). The adenylate cyclase activity was determined using the cAMP Biotrak Enzymeimmunoassay system according to the manufacturer’s protocol. The assay was conducted in a total volume of 100 µL containing 80 mM Tris-maleate buffer, 5 mM theophylline, 2 mM MgSO4, 0.5 mM adenosine triphosphate (ATP), 0.2 mM EGTA, 50 µL of whole-body homogenate (equivalent to 4.12 µg protein), and 1 µL of the test compounds in Tris-maleate buffer containing 0.2% ethanol. After incubation at 20 °C for 5 min, the reaction was initiated by addition of ATP. Incubation was performed at 30 °C for 3 min in a shaking water bath. The reaction was stopped by boiling for 2 min, and then, the assay tube was cooled and centrifuged at 8,000 × g for 10 min. Fifty microliters of the supernatant were assayed for cAMP levels.\nPolystyrene microplates (1 strip of 8 wells) coated with a goat anti-mouse polyclonal antibody were used. Fifty microliters of a mouse monoclonal antibody solution were added to each well except for the blank wells (or the nonspecific binding wells). The wells covered with the adhesive strip were incubated at 25 °C for 1 h in a shaking incubator (480 rpm). After washing with 400 µL of wash buffer four times, 50 μL of the two neolignan samples for cAMP determination and cAMP standard were added to wells. Control, blank (nonspecific binding), and zero standard wells were supplemented with 50 μL of a diluent RD5-55 buffer. […] The optical densities at 450 and 540 nm were determined using the microplate reader described above. The readings at 540 nm were subtracted from the readings at 450 nm. The cAMP concentrations are expressed as nmol/µg protein. The results are expressed as the means ± SEs of triplicate samples from three independent experiments."}, "AaV-type H^+-ATPase": {"system": "AaV-type H^+-ATPase", "parameters": "method as in PMID 24260359", "details": "larval Ae. aegypti; cited from earlier work"}, "AaAQP4": {"system": "AaAQP4", "parameters": "method as in PMID 24260359", "details": "larval Ae. aegypti anal gills; cited from earlier work"}}, "note": "Where two headings read alike, the source gives them in different places.", "data": [{"smiles": "Oc1ccccc1", "note": "[Phenol]", "values": [{"measurement": "LC50", "setting": "larval Ae. aegypti", "result": 194, "unit": "mg/L"}, {"measurement": "AChE inhibitory activity (in words)", "setting": "[1]", "result": "lowest of all of the compounds that were examined"}, {"measurement": "LC50", "setting": "[2]; Table 7, structure-activity series, read-out: LC50 (mg/L) (95% CI)", "result": 43.2, "unit": "mg/L"}, {"measurement": "LC90 (mg/L) (95% CI)", "setting": "[2]; Table 7, structure-activity series", "result": "207.1 (145.1–363.6) mg/L"}, {"measurement": "LC50", "setting": "[3]; Table 6, structure-activity series, read-out: LC50 (mg/L) (95% CI)", "result": 41.7, "unit": "mg/L"}, {"measurement": "LC90 (mg/L) (95% CI)", "setting": "[3]; Table 6, structure-activity series", "result": "185.1 (133.5–306.6) mg/L"}]}, {"smiles": "COP(=S)(OC)Oc1ccc(Sc2ccc(OP(=S)(OC)OC)cc2)cc1", "note": "[Temephos, temephos, reference compound]", "values": [{"measurement": "relative susceptibility ratio (RSR)", "setting": "Larvae of An. sinensis", "result": 29}, {"measurement": "LC50", "setting": "[2]; read-out: LC50 (mg/L) (95% CI), Table 3", "result": 0.0125, "unit": "mg/L"}, {"measurement": "LC90 (mg/L) (95% CI)", "setting": "[2]; Table 3", "result": "0.0658 (0.0479–0.1059) mg/L"}, {"measurement": "LC50", "setting": "[4]; Aedes albopictus, 24 h, read-out: LC50 (mg/L) (95% CI)", "result": 0.0132, "unit": "mg/L"}, {"measurement": "LC90 (mg/L) (95% CI)", "setting": "[4]; Table 4, 24 h exposure", "result": "0.0778 (0.0547–0.1343) mg/L"}, {"measurement": "Slope ± SE", "setting": "[4]; probit slope, Table 4, 24 h exposure", "result": "1.6 ± 0.21"}, {"measurement": "LC50", "setting": "[3]; read-out: LC50 (mg/L) (95% CI), Table 2, KS-CP strain", "result": 0.0162, "unit": "mg/L"}, {"measurement": "LC90 (mg/L) (95% CI)", "setting": "[3]; Table 2, KS-CP strain", "result": "0.0749 (0.0551–0.1177) mg/L"}, {"measurement": "LC50", "setting": "[5]; Anopheles sinensis, 24 h, read-out: LC50 (mg/L) (95% CI)", "result": 0.4, "unit": "mg/L"}, {"measurement": "LC90 (mg/L) (95% CI)", "setting": "[5]; Table 5, larvae resistant to deltamethrin and temephos, 24 h exposure", "result": "1.39 (1.05–2.13) mg/L"}, {"measurement": "Slope ± SE", "setting": "[5]; probit slope, Table 5, larvae resistant to deltamethrin and temephos, 24 h exposure", "result": "2.2 ± 0.15"}]}, {"smiles": "Cc1ccc(C(C)C)cc1O", "note": "[carvacrol]", "values": [{"measurement": "LC50", "setting": "larval Ae. aegypti", "result": 69, "unit": "mg/L"}]}, {"smiles": "CC1(C)[C@H](C(=O)O[C@H](C#N)c2cccc(Oc3ccccc3)c2)[C@@H]1C=C(Br)Br", "note": "[deltamethrin]", "values": [{"measurement": "relative susceptibility ratio (RSR)", "setting": "Larvae of An. sinensis", "result": 611}]}, {"smiles": "COP(=S)(OC)Oc1ccc(SC)c(C)c1", "note": "[fenthion]", "values": [{"measurement": "relative susceptibility ratio (RSR)", "setting": "Larvae of An. sinensis", "result": 11}]}, {"smiles": "NCC(O)c1ccc(O)cc1", "note": "(centres unmarked) [octopamine, reference compound]", "values": [{"measurement": "cAMP levels", "setting": "[6]", "result": "did not differ significantly"}]}, {"smiles": "CCCCC/C=C/C=C/C(=O)NCC(C)C", "note": "[pellitorine]", "values": [{"measurement": "expression levels of the gene encoding AaV-type H^+-ATPase", "setting": "AaV-type H^+-ATPase", "result": "slight decreases"}, {"measurement": "AaAQP4 expression levels", "setting": "AaAQP4", "result": "inhibited the AaAQP4 expression levels"}]}]}
